According to ChEMBL document CHEMBL5465560, “Selectivity Literature for EUbOPEN Chemogenomic Library” (2024):

Experiments:
[1] = molecular target: T1, Serine/threonine-protein kinase D1 (Homo sapiens) (UniProt Q15139); assay: Selectivity interaction (KinomeScan (DiscoverX)) EUB0001049a PRKD1; details: at 1 µM
T1 sequence (whole entry): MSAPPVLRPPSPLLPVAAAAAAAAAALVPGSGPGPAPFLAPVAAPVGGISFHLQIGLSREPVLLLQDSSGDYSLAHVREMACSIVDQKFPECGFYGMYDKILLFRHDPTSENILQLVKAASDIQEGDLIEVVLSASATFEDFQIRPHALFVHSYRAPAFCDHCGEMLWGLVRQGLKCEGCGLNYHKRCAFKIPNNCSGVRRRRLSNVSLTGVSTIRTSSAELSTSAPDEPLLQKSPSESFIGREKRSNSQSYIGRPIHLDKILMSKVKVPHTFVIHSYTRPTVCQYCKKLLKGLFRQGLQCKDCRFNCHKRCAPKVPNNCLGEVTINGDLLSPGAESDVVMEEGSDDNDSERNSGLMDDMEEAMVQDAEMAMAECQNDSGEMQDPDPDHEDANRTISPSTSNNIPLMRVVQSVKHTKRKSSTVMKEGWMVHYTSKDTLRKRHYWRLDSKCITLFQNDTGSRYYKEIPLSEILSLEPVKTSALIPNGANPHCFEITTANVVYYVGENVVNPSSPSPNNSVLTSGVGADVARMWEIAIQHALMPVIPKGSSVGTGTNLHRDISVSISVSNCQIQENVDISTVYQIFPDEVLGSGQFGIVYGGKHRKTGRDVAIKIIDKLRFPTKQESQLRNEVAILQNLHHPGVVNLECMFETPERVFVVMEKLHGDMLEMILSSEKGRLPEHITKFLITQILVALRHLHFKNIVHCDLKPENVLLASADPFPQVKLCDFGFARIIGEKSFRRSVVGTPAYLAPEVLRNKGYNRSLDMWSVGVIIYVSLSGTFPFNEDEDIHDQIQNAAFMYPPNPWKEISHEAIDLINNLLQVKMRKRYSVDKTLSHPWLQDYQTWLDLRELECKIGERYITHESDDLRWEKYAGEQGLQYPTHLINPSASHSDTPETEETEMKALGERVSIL

[2] = molecular target: Cyclin-dependent kinase 5 (Homo sapiens, UniProt Q00535); assay: Selectivity interaction (ActivX KiNativ screen (kinase selectivity in THP-1 cell lysates)) EUB0000639a CDK5; format: subcellular; details: lysate, at 5 µM
Chain of Cyclin-dependent kinase 5 (Q00535 whole entry, looked up): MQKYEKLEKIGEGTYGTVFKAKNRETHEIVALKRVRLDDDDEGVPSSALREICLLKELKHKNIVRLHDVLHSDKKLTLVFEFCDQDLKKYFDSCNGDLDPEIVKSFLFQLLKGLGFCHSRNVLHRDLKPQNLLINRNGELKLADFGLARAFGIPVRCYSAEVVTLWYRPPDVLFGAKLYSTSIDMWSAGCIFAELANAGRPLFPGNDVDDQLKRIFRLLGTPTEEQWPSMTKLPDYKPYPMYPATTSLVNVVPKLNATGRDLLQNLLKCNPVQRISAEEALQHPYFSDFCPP

[3] = molecular target: T2, STE20-related kinase adapter protein alpha (Homo sapiens) (UniProt Q7RTN6); assay: Selectivity interaction (ActivX KiNativ screen (kinase selectivity in THP-1 cell lysates)) EUB0000639a STRADA; format: subcellular; details: lysate, at 5 µM
T2 sequence (whole entry): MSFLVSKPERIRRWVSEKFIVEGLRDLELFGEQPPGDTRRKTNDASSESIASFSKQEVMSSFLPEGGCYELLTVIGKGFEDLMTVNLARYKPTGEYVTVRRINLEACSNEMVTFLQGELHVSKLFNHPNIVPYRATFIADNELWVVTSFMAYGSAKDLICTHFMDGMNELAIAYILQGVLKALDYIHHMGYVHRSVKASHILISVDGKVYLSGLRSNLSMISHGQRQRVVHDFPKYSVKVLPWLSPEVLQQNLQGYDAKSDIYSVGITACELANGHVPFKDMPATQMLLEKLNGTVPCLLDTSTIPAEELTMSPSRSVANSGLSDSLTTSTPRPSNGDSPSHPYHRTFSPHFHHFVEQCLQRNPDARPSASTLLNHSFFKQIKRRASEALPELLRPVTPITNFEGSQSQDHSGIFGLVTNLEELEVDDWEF

[4] = molecular target: Serine/threonine-protein kinase WNK1 (Homo sapiens) (UniProt Q9H4A3); assay: Selectivity interaction (ActivX KiNativ screen (kinase selectivity in THP-1 cell lysates)) EUB0000639a WNK1; format: subcellular; details: lysate, at 0.01 µM
Chain of Serine/threonine-protein kinase WNK1 (Homo sapiens) (Q9H4A3 whole entry, looked up): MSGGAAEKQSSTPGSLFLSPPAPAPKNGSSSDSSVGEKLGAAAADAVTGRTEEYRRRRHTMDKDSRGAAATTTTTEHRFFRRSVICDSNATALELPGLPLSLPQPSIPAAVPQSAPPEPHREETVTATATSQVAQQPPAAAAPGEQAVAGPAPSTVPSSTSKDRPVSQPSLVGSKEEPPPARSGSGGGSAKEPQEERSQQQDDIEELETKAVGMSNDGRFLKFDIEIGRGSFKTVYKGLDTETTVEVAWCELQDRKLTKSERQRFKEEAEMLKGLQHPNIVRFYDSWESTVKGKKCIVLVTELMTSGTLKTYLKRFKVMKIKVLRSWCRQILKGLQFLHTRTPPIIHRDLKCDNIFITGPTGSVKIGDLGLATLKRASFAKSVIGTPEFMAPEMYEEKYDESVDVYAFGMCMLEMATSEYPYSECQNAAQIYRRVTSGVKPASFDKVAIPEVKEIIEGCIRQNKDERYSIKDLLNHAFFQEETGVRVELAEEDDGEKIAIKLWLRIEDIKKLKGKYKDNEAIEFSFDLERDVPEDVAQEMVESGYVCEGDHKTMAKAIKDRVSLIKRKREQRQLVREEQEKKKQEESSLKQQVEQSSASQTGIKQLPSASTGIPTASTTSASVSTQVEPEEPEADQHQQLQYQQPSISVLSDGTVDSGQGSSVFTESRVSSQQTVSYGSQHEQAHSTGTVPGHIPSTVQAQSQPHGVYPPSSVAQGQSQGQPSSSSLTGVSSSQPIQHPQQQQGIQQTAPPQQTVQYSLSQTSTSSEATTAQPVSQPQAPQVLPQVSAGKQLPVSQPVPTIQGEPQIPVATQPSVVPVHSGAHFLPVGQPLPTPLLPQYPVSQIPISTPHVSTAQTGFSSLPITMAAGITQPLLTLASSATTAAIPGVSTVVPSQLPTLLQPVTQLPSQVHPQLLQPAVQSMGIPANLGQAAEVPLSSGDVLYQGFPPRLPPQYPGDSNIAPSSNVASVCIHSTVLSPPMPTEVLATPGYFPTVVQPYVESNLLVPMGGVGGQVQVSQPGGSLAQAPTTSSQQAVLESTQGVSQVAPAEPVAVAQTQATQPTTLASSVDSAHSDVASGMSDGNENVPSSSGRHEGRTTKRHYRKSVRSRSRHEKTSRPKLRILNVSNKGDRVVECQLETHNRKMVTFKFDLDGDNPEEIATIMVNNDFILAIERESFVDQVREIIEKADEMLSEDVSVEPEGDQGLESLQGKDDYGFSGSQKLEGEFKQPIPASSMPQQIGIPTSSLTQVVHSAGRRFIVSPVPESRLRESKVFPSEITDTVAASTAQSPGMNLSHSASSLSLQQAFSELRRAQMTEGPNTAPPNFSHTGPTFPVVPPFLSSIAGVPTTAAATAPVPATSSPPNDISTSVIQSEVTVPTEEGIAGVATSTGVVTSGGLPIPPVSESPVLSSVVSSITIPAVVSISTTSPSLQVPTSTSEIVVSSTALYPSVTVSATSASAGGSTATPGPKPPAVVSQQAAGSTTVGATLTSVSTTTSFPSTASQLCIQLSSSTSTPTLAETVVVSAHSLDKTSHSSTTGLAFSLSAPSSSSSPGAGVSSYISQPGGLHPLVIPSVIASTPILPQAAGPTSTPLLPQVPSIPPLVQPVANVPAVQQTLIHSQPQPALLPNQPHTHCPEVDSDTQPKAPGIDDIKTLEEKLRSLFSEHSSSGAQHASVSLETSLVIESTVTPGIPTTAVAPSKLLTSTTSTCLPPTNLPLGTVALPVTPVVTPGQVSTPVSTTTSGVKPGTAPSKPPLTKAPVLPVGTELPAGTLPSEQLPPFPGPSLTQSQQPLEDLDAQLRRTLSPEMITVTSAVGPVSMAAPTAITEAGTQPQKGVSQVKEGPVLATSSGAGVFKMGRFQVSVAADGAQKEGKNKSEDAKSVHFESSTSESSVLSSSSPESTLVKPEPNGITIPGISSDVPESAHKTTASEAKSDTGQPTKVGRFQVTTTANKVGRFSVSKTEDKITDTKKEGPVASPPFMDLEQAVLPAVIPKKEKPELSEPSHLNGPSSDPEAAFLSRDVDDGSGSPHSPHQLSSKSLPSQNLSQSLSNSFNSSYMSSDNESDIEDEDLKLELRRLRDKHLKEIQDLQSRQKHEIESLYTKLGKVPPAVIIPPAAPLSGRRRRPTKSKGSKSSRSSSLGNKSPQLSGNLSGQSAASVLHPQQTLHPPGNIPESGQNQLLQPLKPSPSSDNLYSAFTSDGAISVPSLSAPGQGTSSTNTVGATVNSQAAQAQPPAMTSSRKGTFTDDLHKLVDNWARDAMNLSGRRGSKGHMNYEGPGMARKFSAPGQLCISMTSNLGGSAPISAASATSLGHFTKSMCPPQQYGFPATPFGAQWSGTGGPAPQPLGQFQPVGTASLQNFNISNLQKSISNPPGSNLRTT

[5] = molecular target: T3, SNF-related serine/threonine-protein kinase (Homo sapiens) (UniProt Q9NRH2); assay: Selectivity interaction (Ambit KINOMEscan and KiNATiv profiling in Jurkat cells) EUB0000090b SNRK; format: cell-based; details: at 1 µM
T3 sequence (whole entry): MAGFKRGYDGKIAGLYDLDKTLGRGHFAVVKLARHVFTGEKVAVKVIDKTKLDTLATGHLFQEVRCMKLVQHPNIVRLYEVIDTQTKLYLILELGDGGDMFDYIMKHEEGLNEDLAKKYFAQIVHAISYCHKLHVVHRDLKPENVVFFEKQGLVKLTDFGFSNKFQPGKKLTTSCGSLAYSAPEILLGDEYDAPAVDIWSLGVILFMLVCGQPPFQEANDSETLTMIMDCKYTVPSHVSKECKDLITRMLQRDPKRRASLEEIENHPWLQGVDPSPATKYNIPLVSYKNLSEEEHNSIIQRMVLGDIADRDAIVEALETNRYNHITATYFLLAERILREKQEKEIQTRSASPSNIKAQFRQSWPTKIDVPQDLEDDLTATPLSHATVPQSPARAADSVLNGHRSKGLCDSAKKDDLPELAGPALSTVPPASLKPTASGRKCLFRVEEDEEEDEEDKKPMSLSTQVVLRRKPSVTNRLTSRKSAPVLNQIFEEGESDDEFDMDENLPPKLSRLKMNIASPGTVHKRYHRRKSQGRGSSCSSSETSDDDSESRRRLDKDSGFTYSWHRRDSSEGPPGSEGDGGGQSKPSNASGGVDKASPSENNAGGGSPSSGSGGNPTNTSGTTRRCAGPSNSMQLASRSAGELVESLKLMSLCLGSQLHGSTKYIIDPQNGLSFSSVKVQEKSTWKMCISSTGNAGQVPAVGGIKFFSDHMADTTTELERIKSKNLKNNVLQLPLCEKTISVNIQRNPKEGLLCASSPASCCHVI

[6] = molecular target: Tyrosine-protein kinase Blk (Homo sapiens) (UniProt P51451); assay: Selectivity interaction (KinomeScan (DiscoverX)) EUB0000045b BLK
Chain of Tyrosine-protein kinase Blk (Homo sapiens) (P51451 2-505 limits assumed): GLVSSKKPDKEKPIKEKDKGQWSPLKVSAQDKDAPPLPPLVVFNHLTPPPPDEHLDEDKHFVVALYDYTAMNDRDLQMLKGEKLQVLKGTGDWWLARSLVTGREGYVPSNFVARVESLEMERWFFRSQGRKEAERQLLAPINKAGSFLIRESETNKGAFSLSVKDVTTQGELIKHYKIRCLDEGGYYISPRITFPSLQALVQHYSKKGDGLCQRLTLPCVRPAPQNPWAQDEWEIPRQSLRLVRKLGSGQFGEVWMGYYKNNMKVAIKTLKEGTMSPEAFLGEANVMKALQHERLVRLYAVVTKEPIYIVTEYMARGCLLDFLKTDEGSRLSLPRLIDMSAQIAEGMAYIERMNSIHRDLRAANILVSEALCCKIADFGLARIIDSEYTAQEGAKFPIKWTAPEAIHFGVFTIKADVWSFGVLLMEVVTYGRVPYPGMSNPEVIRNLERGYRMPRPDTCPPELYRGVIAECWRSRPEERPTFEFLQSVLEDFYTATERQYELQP

[7] = molecular target: Dual specificity mitogen-activated protein kinase kinase 2 (Homo sapiens) (UniProt P36507); assay: Selectivity interaction (KinomeScan (DiscoverX)) EUB0000607a MAP2K2; details: at 10 µM
Chain of Dual specificity mitogen-activated protein kinase kinase 2 (Homo sapiens) (P36507 whole entry): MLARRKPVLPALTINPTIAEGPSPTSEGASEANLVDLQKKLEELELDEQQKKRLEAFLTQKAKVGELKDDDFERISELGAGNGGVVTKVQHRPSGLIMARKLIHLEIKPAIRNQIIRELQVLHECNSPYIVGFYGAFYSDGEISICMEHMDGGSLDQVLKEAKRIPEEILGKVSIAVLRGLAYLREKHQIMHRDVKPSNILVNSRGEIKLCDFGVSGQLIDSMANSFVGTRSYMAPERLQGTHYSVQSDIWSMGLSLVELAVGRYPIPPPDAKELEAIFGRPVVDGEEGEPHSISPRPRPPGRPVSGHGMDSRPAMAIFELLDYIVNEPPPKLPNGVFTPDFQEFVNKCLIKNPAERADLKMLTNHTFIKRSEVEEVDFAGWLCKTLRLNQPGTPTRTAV

Structure (SMILES): COc1cc(Nc2nc(C)cc(-c3cnn4nc(OC)ccc34)n2)cc(C(F)(F)F)c1
- % of control [1]: 100%

Structure (SMILES): CC[C@@H]1[C@H](F)C(=O)N[C@@H]1COc1nccc2cc(C(N)=O)c(OC)cc12 [ZIMLOVISERTIB]
- % of inhibition [2]: -23.1%
- % of inhibition [3]: -29.5%
- % of inhibition [4]: 3.3%

Structure (SMILES): CN(C)C/C=C/C(=O)Nc1ccc(C(=O)N2CCCC(Nc3ncc(Cl)c(-c4c[nH]c5ccccc45)n3)C2)cc1 (stereo not drawn)
- % of control [5]: 93%

Structure (SMILES): C=CC(=O)Nc1cc(-n2c(=O)ccc3cnc4ccc(-c5ccc(NS(C)(=O)=O)cc5)cc4c32)ccc1C
- % of control ([6]; at 1 µM): 40%
- % of control ([6]; at 10 µM): 4.8%

Structure (SMILES): CNC(=O)Nc1ccc(-c2nc(N3CC4CCC(C3)O4)c3cnn(C4CCC5(CC4)OCCO5)c3n2)cc1
- % of control [7]: 100%
